As a reminder, the IC50 is the concentration at which inhibition is half-maximal. A higher IC50 goes with weaker potency. The term half-life denotes how long it takes for the measured level to halve. For orientation: microsomal CLint means the rate of metabolic loss divided by the concentration. By AUC(0-t) is commonly meant exposure summed from dosing to a finite time, without extrapolation to infinity. As a reminder, the Cmax is the peak of the concentration-time curve. One may read the Tmax as the time at which the peak concentration occurs.

The target of one data set is BTK (Homo sapiens (Human), UniProt Q06187). The data set can be described thus: Kinase inhibition test (HTRF). In kind it is biochemical. The conditions noted are these: 1 nM BTK, 20 μM ATP. The method, then: (1) Kinase Inhibition Test
1) Compound dilution: The test compounds were dissolved in DMSO to make a 10 mM stock solution. […] 2) Kinase assay: in a 10 μL reaction system (containing buffer 50 mM Hepes (pH 7.5), 5 mM MgCl2, 0.01 mM Na3VO4, 1% BSA) in a 384-well plate, 1 nM BTK, 1 μM biotin-TK peptide (from HTRF-TK kit) and 20 μM ATP were incubated at 23° C. for 90 minutes.

The test system of another data set is RAMOS. The data set can be described thus: RAMOS IC50. In kind it is cell-based. The settings on record: Homo sapiens.
Data set [1] in a line: Metabolic stability in human liver microsomes. In kind it is in vitro ADME. The conditions noted are these: pH 7.4, 1 μM compound, 0.5 mg/mL protein. On the procedure: (§1) (2) Metabolic Stability Evaluation Experiments in Microsome:
(§2) 2) Preparation of phosphate buffer (100 mM, pH 7.4): 150 mL of pre-formulated 0.5 M potassium dihydrogen phosphate was taken and mixed with 700 mL of 0.5 M dipotassium hydrogen phosphate solution, and the pH of the mixture was adjusted to 7.4 with 0.5 M dipotassium hydrogen phosphate solution. Before use it was diluted by 5 times with ultrapure water, and magnesium chloride was added to obtain the phosphate buffer (100 mM), which contains 100 mM potassium phosphate, 3.3 mM magnesium chloride, and a pH of 7.4. […] 4) Preparation of stop solution: The stop solution was an acetonitrile solution containing 50 ng/mL propranolol hydrochloride and 200 ng/mL tolbutamide (internal standard). […] 6) Incubation of the sample: The stock solutions of the corresponding compounds were diluted to 0.25 mM with an aqueous solution containing 70% acetonitrile, which is used as a working solution and is ready for use. 398 μL of human liver microsomes dilution or rat liver microsome dilution was added to 96-well incubation plates (N=2), and 2 μL of 0.25 mM working solutions were added respectively, and evenly mixed. 7) Determination of metabolic stability: 300 μL of pre-cooled stop solution was added to each well of a 96-well deep well plate, which was placed on ice as a stop plate. The 96-well incubation plate and the NADPH regeneration system were placed in a 37° C. water bath, shaken at 100 rpm, and pre-incubated for 5 min. 80 μL of the incubation solution was taken from each well of the incubation plate, added to the stop plate, evenly mixed, and 20 μL of the NADPH regeneration system solution was added as 0 minute sample. Then, 80 μL of the NADPH regeneration system solution was added to each well of the incubation plate to start the reaction and start timing. […] 100 μL of the reaction solutions were taken at 10, 30, and 90 min, respectively, added to the stop place, and the reaction was terminated by vortexing for 3 min. The plate was centrifuged at 5000×g for 10 min at 4° C. 100 μL of the supernatant was taken and added into a 96-well plate to which 100 μL of distilled water was previously added, evenly mixed, and samples were analyzed by LC-MS/MS. 8) Data analysis: The peak area of the corresponding compounds and the internal standard was detected by LC-MS/MS system, and the ratio of the peak area of the compounds to the internal standard was calculated.

A short description of data set [2]: Metabolic stability in rat liver microsomes. The format is in vitro ADME, SD rat. The settings on record: Sprague-Dawley, pH 7.4, 1 μM compound, 0.5 mg/mL protein. On the procedure: as §1, §2
(In general: Liver microsomes are vesicles of endoplasmic reticulum, rich in cytochrome P450 enzymes.)

For data set [3] the following is noted: male, Sprague-Dawley, rat, in vivo.
A short description of the next data set: in vivo. The conditions noted are these: male, Sprague-Dawley, rat.
Data set [4] can be described thus: Pharmacokinetic experiments in rats. The conditions noted are these: male, Sprague-Dawley, rat, in vivo.

Structures are written as SMILES.

BTK, sequence (Q06187 whole entry): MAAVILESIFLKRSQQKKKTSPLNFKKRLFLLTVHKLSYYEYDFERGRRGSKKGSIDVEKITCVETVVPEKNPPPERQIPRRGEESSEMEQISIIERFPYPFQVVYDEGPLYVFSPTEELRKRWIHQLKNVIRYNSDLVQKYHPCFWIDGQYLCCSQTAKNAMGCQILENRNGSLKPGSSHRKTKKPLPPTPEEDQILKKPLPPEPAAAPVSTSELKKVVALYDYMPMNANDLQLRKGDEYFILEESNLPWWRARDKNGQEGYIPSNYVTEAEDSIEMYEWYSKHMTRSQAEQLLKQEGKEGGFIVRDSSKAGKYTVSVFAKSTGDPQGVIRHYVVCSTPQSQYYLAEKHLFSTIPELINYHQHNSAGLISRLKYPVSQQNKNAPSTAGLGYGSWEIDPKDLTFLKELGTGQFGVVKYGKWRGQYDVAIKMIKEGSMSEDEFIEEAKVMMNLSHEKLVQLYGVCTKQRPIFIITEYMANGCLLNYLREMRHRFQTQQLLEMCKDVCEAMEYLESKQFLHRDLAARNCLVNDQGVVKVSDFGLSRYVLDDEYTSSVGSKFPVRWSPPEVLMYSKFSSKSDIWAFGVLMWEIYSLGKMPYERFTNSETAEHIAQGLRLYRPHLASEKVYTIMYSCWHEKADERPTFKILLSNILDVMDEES

For `C=CC(=O)N1CCC[C@@H](c2cn(-c3ccc(Oc4ccccc4)cc3)c3c(N)ncnc23)C1` [Example 3, (S)-1-(3-(4-amino-5-(4-phenoxyphenyl)-5H-pyrrolo[3,2-d]pyrimidin-7-yl)piperidin-1-yl)prop-2-en-1-one], the IC50 against BTK is less than 0.001 µM. Moreover, the IC50 with RAMOS is less than 0.1 µM. Also, in data set [1], the half-life at 1 μM was 1.3 min and the microsomal CLint at 1 μM came out at 1100 µL/min/mg.

For `C=CC(=O)N1CCC[C@H](c2cn(-c3ccc(Oc4ccccc4)cc3)c3c(N)ncnc23)C1` [Example 4, (R)-1-(3-(4-amino-5-(4-phenoxyphenyl)-5H-pyrrolo[3,2-d]pyrimidin-7-yl)piperidin-1-yl)prop-2-en-1-one], the values for the IC50 against BTK and in the data set with RAMOS were less than 0.001 µM and less than 0.1 µM, respectively. Besides, the half-life at 1 μM came to 3.5 min in data set [1] and 2.9 min in data set [2]. In addition, the microsomal CLint at 1 μM in data set [1] was 399 µL/min/mg; in data set [2], 483 µL/min/mg.

For the compound `C=CC(=O)N1CCC[C@@H](c2nn(-c3ccc(Oc4ccccc4)cc3)c3c(N)ncnc23)C1` [Example 5, (R)-1-(3-(7-amino-1-(4-phenoxyphenyl)-1H-pyrazolo[4,3-d]pyrimidin-3-yl)piperidin-1-yl)prop-2-en-1-one], the IC50 at BTK was less than 0.001 µM. The IC50 in the data set with RAMOS is less than 0.1 µM. In data set [1], the half-life at 1 μM came to 1.5 min and the microsomal CLint at 1 μM worked out at 922 µL/min/mg.

As to `C=CC(=O)N1CCC[C@H](c2nn(-c3ccc(Oc4ccccc4)cc3)c3c(N)ncnc23)C1` [Example 6, (S)-1-(3-(7-amino-1-(4-phenoxyphenyl)-1H-pyrazolo[4,3-d]pyrimidin-3-yl)piperidin-1-yl)prop-2-en-1-one], the IC50 is less than 0.001 µM at BTK and less than 0.1 µM in the data set on RAMOS. The half-life at 1 μM was determined as 12.5 min in data set [1] and 4.1 min in data set [2]. In addition, the microsomal CLint at 1 μM stood at 111 µL/min/mg in data set [1] and 338 µL/min/mg in data set [2].

In turn, `C=CC(=O)N1CCC[C@@H](c2nc(-c3ccc(Oc4ccccc4)cc3)c3c(N)nccn23)C1` [Example 7, (R)-1-(3-(8-amino-1-(4-phenoxyphenyl)imidazo[1,5-a]pyrazin-3-yl)piperidin-1-yl)prop-2-en-1-one] displayed a F in data set [3] of 23.20%. Moreover, the results for the IC50 against BTK and in the data set with RAMOS were less than 0.001 µM and less than 0.1 µM, respectively. The results for the half-life at 1 μM in data set [1] and in data set [2] were 5.7 min and 2.4 min, respectively. For the same compound, the microsomal CLint at 1 μM in data set [1] was 243 µL/min/mg; in data set [2], 576 µL/min/mg. Besides, the AUC(0-t) came out at 401 ng·h/mL in “in vivo” (iv, 0.5 mg/kg) and 931 ng·h/mL in the data set “in vivo” (po, 10 mg/kg). The Cmax stood at 966 ng/mL in the data set “in vivo” (iv, 0.5 mg/kg) and 365 ng/mL in the data set “in vivo” (po, 10 mg/kg). Further, the Tmax in “in vivo” (iv, 0.5 mg/kg) is 4.8 min; in “in vivo” (po, 10 mg/kg), 40.2 min.

Consider `C=CC(=O)N1CCC[C@@H](n2nc(-c3ccc(Oc4ccccc4)cc3)c3c(N)ncnc32)C1` [Ibrutinib], for which, in data set [4] (iv, 0.5 mg/kg), the exposure AUC(0-t) was found to be 437 ng·h/mL, the Cmax is 1230 ng/mL and the Tmax worked out at 4.8 min. In data set [4] (po, 10 mg/kg), the AUC(0-t) was determined as 727 ng·h/mL, the peak level (Cmax) was 250 ng/mL and the Tmax came to 30 min. This compound also had an IC50 in the data set with RAMOS of less than 0.1 µM.
